Measured values reported in ChEMBL document CHEMBL1201862, “PubChem BioAssay data set” (2004).
Structures can show the parent of a compound that is named as a salt. Active and inactive are the calls of the source.

Legend:
[1] = inhibitors of clade B AD8 Env fusion, dose response, cell-based, cherry-pick (AID 652062); assay type: functional;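 further: luciferase signal from cell-cell fusion driven by HIV-1 clade B AD8 Env; potency is for inhibitors of fusion seen as a drop in luminescence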
[2] = Luminescence Cell-Based Dose Response HTS to Identify Inhibitors of 5'UTR Stem-Loop Driven Prion Protein mRNA Translation in H4 Neuroglioblastoma Cells. [Related pubchem assays: 1827 (Project Summary), 1813 (Primary HTS)]; assay type: functional
HEK293 = assay: inhibitors of LMP1-driven NF-kB reporter, dose response, cell-based, HEK293, luciferase, cherry-pick (AID 588343); assay type: functional; details: Homo sapiens
INS1 = assay: beta cell apoptosis inhibitors, cytokine rescue, dose response, luminescence, retest (AID 449756); assay type: functional, cell-based; details: Rattus norvegicus;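 further: cell death triggered by IL-1 beta plus TNF-alpha plus IFN-gamma mixture; protective hits raise ATP signal compared with cytokine alone wells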
[3] = Luminescence Cell-Based Dose Retest to Confirm Inhibitors of Cancer Stem Cells. [Related pubchem assays (depositor defined):AID2717, AID2721]; assay type: functional; details: Homo sapiens
[4] = off-target signal loss in HeLa-CEM21 co-culture – HeLa F-luc CTL cells, cherry-picked, counter-screen for HIV-1 Env fusion inhibitor project, dose response (AID 652040); assay type: functional, cell-based;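 further: potency for signal decrease marking cytotoxic or nonspecific inhibition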
[5] = inhibitors of HIV Env-driven cell fusion, dose response, cherry-pick (AID 652057); assay type: functional, cell-based
[6] = inhibitors of firefly luciferase expression or activity, dose response, H4 neuroglioma cells, luminescence (AID 1990); assay type: functional, cell-based
[7] = ZM109 Env clade C HIV-1 fusion inhibitors, dose response, HeLa effector, CEM target cells, luciferase, cherry-pick (AID 652058); assay type: functional, cell-based
[8] = microbe, parasite or virus in culture; assay type: functional; details: Mycobacterium tuberculosis
[9] = inhibitors of SNCA 5'UTR-driven reporter translation, confirmation, H4 neuroglioma cells, luminescence (AID 1988); assay type: functional, cell-based
[10] = CEM21 lymphoblast cell cytotoxicity, dose response, cytotoxicity control for viral fusion inhibitor project, CellTiter-Glo luminescence, cherry-picked (AID 652042); assay type: functional, cell-based;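 further: potency for signal decrease meaning cytotoxicity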
Paired box protein Pax-8 = Paired box protein Pax-8 (Homo sapiens, UniProt Q06710); assay: inhibitors of PAX8-driven TPO luciferase reporter, dose response, RMG-I cells, cherry-pick (AID 687027); assay type: functional, cell-based;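 further: luciferase reporter driven by Pax8 target thyroperoxidase promoter measured by SteadyGlo luminescence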
Chain of Paired box protein Pax-8 (Q06710 whole entry): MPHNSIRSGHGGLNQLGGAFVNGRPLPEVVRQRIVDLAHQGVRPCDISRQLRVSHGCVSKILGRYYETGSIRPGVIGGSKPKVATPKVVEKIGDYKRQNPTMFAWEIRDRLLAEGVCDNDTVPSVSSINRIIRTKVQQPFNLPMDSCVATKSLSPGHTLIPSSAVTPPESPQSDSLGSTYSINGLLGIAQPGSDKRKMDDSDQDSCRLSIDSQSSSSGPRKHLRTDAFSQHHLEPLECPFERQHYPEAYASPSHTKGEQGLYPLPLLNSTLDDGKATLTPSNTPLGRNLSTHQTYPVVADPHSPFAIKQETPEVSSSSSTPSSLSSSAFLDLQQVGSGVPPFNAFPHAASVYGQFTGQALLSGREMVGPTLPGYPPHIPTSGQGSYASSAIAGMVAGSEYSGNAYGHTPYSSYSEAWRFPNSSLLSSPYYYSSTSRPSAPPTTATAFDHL

[11] = Luminescence Cell-Based Dose Confirmation HTS to Identify Inhibitors of Platelet Dense Granule Release. [Related pubchem assays: 1663 (Primary HTS), 1678 (Summary of Project)]; assay type: functional
[12] = A549 cell cytotoxicity, dose response, cytotoxicity control, plate reader, cherry-pick, antagonist series (AID 743412); assay type: functional, cell-based
[13] = HepG2 cell cytotoxicity, dose response, cytotoxicity control, plate reader, cherry-pick, antagonist series (AID 743416); assay type: functional, cell-based
cells [14] = assay type: functional
[15] = THP-1 cell cytotoxicity, dose response, cytotoxicity control for non-replicating M. tuberculosis project (AID 489025); assay type: functional
[16] = biological target: Luciferin 4-monooxygenase (Photinus pyralis, UniProt P08659); assay: firefly luciferase enzyme inhibitors, dose response, biochemical, luminescence (AID 1891)
Chain of Luciferin 4-monooxygenase (P08659 whole entry): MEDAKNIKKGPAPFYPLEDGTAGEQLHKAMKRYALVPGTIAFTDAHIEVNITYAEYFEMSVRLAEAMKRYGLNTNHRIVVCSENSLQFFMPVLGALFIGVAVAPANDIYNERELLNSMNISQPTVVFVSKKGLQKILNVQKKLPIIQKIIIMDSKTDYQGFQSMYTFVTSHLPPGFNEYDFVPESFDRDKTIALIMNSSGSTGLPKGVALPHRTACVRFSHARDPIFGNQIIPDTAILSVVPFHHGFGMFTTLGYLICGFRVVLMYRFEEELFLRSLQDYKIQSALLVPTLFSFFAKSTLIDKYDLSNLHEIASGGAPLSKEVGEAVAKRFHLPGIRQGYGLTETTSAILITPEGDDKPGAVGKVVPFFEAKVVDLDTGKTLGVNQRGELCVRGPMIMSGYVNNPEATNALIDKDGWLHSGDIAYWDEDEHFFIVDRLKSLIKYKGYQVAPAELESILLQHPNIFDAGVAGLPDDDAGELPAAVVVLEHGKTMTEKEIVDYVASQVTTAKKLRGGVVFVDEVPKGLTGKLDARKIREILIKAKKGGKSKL

[17] = HEK293 cell cytotoxicity, dose response, cytotoxicity control, plate reader, cherry-picked samples (AID 743446); assay type: functional, cell-based
[18] = MC4R antagonists, dose response, counter-screen for LGR2 antagonist project, cell-based, plate reader, cherry pick (AID 743444); assay type: functional;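 further: transfected HEK 293 cells stimulated with alpha-MSH peptide; potency of inhibitors of the alpha-MSH evoked signal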
[19] = Vero E6 cell cytotoxicity, dose response, cytotoxicity control for non-replicating M. tuberculosis project, secondary assay (AID 492998); assay type: functional, VeroE6; details: Vero C1008
[20] = LGR2 antagonists, dose response, cell-based, HEK293, CRE-luciferase reporter, cherry pick, set 2 (AID 743343); assay type: functional;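 further: transfected cells were stimulated with diluted bursicon conditioned medium after compound addition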
Mu-type opioid receptor = Mu-type opioid receptor (Homo sapiens, UniProt P35372); assay type: functional, cell-based;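 further: U2OS cells with beta-arrestin recruitment to OPRM1 by beta-gal complementation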
Chain of Mu-type opioid receptor (P35372 whole entry): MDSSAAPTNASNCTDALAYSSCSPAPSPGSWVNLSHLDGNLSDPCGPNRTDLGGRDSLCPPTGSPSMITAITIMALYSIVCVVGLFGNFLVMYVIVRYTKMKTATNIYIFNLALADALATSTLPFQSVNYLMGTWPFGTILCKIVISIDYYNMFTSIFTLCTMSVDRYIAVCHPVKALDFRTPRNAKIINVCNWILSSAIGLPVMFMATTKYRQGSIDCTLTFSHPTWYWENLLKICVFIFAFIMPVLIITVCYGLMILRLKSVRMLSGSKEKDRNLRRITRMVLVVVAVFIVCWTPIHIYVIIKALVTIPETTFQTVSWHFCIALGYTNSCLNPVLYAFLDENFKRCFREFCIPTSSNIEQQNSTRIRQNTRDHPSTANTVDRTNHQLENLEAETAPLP

[21] = biological target: 5-hydroxytryptamine receptor 2A (Mus musculus, UniProt P35363); assay type: functional, cell-based;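 further: CHO-K1 cells with tagged receptor and beta-arrestin; agonist potency measured as compound-induced activation of the receptor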
Chain of 5-hydroxytryptamine receptor 2A (P35363 whole entry): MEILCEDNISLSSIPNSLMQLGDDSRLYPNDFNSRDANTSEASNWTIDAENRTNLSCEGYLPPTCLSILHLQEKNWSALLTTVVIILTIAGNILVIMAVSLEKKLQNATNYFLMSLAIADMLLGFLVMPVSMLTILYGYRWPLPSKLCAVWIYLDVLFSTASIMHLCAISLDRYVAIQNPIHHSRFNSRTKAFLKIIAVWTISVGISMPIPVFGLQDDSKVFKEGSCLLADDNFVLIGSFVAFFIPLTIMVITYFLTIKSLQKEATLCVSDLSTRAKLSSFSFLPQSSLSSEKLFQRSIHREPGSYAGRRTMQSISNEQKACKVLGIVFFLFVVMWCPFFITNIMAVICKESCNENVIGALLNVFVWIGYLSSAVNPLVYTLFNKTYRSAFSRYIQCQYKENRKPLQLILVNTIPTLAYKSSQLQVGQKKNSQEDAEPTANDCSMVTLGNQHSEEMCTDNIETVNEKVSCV

Coagulation factor XII = biological target: T1, Coagulation factor XII (Homo sapiens, UniProt P00748); assay type: functional;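 further: activated factor XIIa alpha cleaving a fluorogenic AMC peptide substrate; inhibitor potency from loss of enzyme activity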
T1 sequence (P00748 whole entry): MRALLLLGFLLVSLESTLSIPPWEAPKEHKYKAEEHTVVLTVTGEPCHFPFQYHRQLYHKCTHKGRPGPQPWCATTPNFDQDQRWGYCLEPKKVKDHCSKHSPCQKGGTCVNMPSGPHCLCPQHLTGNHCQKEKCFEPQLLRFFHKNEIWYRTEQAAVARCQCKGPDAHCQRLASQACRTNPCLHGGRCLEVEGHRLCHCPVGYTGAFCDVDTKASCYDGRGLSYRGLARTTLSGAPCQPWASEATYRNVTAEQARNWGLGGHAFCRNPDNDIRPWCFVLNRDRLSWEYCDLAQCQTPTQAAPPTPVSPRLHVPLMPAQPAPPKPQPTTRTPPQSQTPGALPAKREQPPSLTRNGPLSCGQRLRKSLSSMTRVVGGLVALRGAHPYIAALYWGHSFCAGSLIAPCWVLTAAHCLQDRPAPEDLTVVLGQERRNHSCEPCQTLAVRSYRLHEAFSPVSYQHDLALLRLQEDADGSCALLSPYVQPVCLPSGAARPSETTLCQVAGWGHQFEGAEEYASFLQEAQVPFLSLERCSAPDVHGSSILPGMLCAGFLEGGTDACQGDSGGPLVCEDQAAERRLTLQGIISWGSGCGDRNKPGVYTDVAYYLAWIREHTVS

[22] = biological target: T2, Nuclear receptor subfamily 0 group B member 1 (Homo sapiens, UniProt P51843); assay type: functional, cell-based;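 further: HEK293T cells transfected with SF-1 and DAX-1 plus StAR promoter luciferase reporter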
T2 sequence (P51843 whole entry): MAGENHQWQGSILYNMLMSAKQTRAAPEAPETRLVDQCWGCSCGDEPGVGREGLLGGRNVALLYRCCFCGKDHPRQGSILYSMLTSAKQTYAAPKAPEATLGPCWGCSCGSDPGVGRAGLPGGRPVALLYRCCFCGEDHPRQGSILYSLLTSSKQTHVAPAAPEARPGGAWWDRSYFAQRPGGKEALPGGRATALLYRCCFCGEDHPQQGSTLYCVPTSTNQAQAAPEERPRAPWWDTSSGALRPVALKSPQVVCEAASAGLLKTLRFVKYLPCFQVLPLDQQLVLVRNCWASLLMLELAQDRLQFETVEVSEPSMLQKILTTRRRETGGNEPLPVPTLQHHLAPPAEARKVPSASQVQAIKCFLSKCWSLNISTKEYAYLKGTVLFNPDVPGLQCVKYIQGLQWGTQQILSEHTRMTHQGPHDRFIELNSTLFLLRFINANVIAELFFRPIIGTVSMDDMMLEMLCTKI

cells [23] = assay type: functional, cell-based
[24] = NIH-3T3 fibroblast cytotoxicity, dose response, cytotoxicity control, cell-based, fluorescence, Alamar Blue, secondary assay (AID 2327); assay type: functional;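 further: NIH-3T3 mouse fibroblasts cultured with fluconazole at 8 µg/mL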
[25] = C. albicans growth with fluconazole, confirmation, fluorescence, retest (AID 2467); assay type: functional, cell-based
[26] = HepG2 cell cytotoxicity, dose response, cytotoxicity control for Shn3 inhibitor project, CellTiter-Glo, cherry-picked (AID 624134); assay type: functional, cell-based
[27] = Shn3 3'UTR reporter inhibitors, dose response, cell-based, Clone20 osteoblasts, firefly luciferase, cherry-picked (AID 624132); assay type: functional;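 further: firefly luciferase luminescence from reporter carrying the Shn3 3'UTR in osteoblasts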
[28] = control 3'UTR Renilla luciferase suppression, dose response, counter-screen for Shn3 inhibitor project, cell-based, Clone20-Shn3RL, cherry-picked (AID 624133); assay type: functional
[29] = biological target: Ras and Rab interactor 1/Tyrosine-protein kinase ABL1 (Homo sapiens, UniProt P00519+Q13671); assay type: functional;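 further: biochemical TR-FRET dose-response test measuring inhibition of binding between Rin1 and Abl proteins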
Chain of Ras and Rab interactor 1/Tyrosine-protein kinase ABL1 (P00519 whole entry): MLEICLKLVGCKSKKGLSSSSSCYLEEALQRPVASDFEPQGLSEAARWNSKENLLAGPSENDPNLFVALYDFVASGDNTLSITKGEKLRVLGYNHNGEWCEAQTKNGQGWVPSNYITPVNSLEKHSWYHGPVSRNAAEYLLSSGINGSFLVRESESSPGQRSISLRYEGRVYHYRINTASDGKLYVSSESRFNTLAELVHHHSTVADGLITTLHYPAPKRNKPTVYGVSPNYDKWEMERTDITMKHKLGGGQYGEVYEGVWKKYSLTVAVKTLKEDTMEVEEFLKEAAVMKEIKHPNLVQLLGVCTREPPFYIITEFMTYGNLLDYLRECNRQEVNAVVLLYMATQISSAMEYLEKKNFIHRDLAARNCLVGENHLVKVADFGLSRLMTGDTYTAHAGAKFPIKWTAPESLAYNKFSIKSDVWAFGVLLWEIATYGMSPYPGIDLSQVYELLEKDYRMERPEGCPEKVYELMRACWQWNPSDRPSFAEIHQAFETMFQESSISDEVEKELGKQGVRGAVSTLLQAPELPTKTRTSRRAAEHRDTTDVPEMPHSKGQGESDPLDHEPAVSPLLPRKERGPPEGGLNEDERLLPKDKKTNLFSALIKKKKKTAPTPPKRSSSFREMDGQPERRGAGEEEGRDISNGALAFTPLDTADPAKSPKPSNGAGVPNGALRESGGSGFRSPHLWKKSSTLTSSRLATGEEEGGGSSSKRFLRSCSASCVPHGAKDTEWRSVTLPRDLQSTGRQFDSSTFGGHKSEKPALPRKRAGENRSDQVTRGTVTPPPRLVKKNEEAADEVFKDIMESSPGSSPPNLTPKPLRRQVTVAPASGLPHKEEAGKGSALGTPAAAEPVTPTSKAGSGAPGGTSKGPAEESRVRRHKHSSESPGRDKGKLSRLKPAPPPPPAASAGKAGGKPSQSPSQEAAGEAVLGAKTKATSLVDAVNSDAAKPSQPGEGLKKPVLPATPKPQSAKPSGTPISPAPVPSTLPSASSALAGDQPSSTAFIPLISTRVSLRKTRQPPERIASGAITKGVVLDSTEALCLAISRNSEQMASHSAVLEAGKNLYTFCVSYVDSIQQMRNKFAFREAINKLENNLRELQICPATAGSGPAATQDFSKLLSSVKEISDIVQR
Chain of Ras and Rab interactor 1/Tyrosine-protein kinase ABL1 (Q13671 whole entry): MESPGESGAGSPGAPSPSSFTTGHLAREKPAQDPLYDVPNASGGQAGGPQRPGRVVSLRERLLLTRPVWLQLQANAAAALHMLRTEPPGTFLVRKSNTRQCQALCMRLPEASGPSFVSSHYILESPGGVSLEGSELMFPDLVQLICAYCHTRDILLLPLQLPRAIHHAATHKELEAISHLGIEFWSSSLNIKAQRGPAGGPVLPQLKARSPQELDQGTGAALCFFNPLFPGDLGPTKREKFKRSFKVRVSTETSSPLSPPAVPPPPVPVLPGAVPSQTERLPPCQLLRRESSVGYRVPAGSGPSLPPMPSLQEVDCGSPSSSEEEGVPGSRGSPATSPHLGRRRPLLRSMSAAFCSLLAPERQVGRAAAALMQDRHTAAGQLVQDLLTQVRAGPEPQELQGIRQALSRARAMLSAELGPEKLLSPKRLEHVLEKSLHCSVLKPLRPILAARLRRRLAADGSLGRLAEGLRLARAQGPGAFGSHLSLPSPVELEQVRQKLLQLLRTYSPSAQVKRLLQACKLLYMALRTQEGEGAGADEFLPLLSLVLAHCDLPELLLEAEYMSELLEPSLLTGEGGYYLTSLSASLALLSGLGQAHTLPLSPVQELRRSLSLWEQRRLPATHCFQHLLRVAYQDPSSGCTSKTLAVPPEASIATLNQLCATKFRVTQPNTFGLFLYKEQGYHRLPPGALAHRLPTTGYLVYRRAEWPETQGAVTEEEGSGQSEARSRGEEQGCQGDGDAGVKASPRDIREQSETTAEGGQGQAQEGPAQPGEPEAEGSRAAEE

[30] = biological target: Heat shock protein HSP 90-alpha (Homo sapiens, UniProt P07900); assay type: functional, organism-based
[31] = biological target: T3, Sentrin-specific protease 8 (Homo sapiens, UniProt Q96LD8); assay type: functional
T3 sequence (Q96LD8 whole entry): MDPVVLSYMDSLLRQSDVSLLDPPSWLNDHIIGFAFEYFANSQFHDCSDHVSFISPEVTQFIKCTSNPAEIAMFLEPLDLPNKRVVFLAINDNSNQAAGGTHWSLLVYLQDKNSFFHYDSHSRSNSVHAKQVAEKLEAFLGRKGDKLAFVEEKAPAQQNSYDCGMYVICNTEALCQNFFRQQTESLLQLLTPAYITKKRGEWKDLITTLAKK

[32] = biological target: T3, Sentrin-specific protease 8; assay type: functional; remark: listed apart in the source
[33] = biological target: T4, DNA repair protein RAD52 homolog (Homo sapiens, UniProt P43351); assay type: functional, biochemical
T4 sequence (P43351 whole entry): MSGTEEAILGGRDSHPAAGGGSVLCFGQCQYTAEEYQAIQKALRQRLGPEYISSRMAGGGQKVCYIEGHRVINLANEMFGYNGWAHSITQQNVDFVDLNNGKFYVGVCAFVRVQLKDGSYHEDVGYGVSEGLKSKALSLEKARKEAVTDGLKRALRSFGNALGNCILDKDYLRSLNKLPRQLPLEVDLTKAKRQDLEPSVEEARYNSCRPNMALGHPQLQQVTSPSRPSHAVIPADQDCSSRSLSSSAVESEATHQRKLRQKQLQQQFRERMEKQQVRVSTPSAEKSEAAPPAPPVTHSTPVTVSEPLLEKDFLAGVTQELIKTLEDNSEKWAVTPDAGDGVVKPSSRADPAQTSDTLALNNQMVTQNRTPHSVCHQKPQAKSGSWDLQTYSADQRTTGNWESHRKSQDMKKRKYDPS

SMILES: CCN(CC)S(=O)(=O)c1cccc(NC(=O)Nc2cccc(C(F)(F)F)c2)c1
- AC50 [1]: 10.4 µM (active)
- EC50 [2]: > 120 µM (not active)
- AC50 (HEK293): 21.4 µM (active)
- AC50 (INS1): 5.03 µM (active)
- AC50 [3]: 3.36 µM (active)
- AC50 [4]: 7.47 µM (active)
- AC50 [5]: 0.542 µM (active)
- EC50 [6]: > 120 µM (not active)
- AC50 [7]: < 0.26 µM (active)
- CC50 [8]: 13.8 µM (active)
- EC50 [9]: > 120 µM (not active)
- AC50 [10]: 13.6 µM (active)
- AC50 (Paired box protein Pax-8): 14.9 µM (active)

SMILES: Cc1cnc(NC(=O)c2ccccn2)s1
- EC50 [11]: 18 µM (active)
- AC50 [12]: 24 µM (active)
- AC50 [13]: 27.8 µM (active)
- IC50 (cells [14]): 4.77 µM (active)
- CC50 [15]: > 40 µM (active)
- AC50 (HEK293): 8.48 µM (active)
- EC50 [16]: 34.9 µM (active)
- AC50 [17]: 30.8 µM (active)
- AC50 [18]: 6.72 µM (active)
- CC50 [19]: > 20 µM (active)
- AC50 [20]: 7.9 µM (active)

SMILES: Clc1ncc(CN2CCN(c3ccccc3)CC2)s1
- EC50 (Mu-type opioid receptor): 92.5 µM (inactive)
- EC50 [21]: 0.815 µM (active)

SMILES: O=C(CN1CCN(c2ccccn2)CC1)Nc1ccc(Oc2ccccc2)cc1
- IC50 (Coagulation factor XII): > 50 µM (inactive)
- EC50 (Mu-type opioid receptor): 92.4 µM (inactive)
- EC50 [21]: 1.17 µM (active)

SMILES: O=C(O)c1cc(/C=C/c2ccc(N3CCOCC3)cc2)nc2ccccc12
- IC50 [22]: > 67.5 µM (inactive)
- IC50 (cells [23]): > 67.5 µM (inactive)
- AC50 (HEK293): 3.14 µM (active)

SMILES: CC(=O)Oc1ccc2c(=O)c(-c3nc4ccccc4s3)coc2c1
- EC50 [11]: 3.83 µM (active)
- EC50 [24]: > 150 µM (inactive)
- IC50 [22]: > 67.5 µM (inactive)
- IC50 (cells [23]): > 67.5 µM (inactive)
- EC50 [16]: 3.63 µM (active)
- AC50 [3]: 6.27 µM (active)
- EC50 [25]: 3.08 µM (active)

SMILES: CCOCC(=O)NC1CCc2cc(OC(=O)COCC)c(OC)c(OC)c2-c2ccc(SC)c(=O)cc21 (stereo not drawn)
- IC50 [22]: 0.244 µM (active)
- IC50 (cells [23]): > 67.5 µM (inactive)
- AC50 (Paired box protein Pax-8): < 0.26 µM (active)

SMILES: COc1cccc(C(c2nnnn2-c2ccc3c(c2)OCCO3)N2CCC(n3c(O)nc4ccccc43)CC2)c1OC (stereo not drawn)
- AC50 [26]: > 70 µM (inactive)
- AC50 [27]: 3.74 µM (active)
- AC50 [28]: 5.67 µM (active)
- IC50 [29]: > 73.4 µM (inactive)
- AC50 (Paired box protein Pax-8): 1.52 µM (active)

SMILES: Cc1cc(C)cc(/N=C/c2ccc([N+](=O)[O-])s2)c1
- AC50 [30]: 4.15 µM (active)
- IC50 [31]: 14.1 µM (active)
- IC50 [32]: 2.56 µM (active)

SMILES: C=CCN1CCc2nc(N)sc2CC1 [TALIPEXOLE HYDROCHLORIDE]
- EC50 (Mu-type opioid receptor): 92.6 µM (inactive)
- EC50 [21]: 0.0137 µM (active)
- AC50 [33]: 6.04 µM (active)
